Measured values published in article PMC5669819 (Molecular cancer therapeutics, 2017).

Columns and labels:
[1] = biological target: MEK1 (Homo sapiens, UniProt Q02750); type: biochemical
[2] = biological target: PI3Kα (Homo sapiens, UniProt P42336); assay: Adapta TR-FRET lipid kinase assay with purified enzyme; type: biochemical
Sequence of PI3Kα (P42336 whole entry): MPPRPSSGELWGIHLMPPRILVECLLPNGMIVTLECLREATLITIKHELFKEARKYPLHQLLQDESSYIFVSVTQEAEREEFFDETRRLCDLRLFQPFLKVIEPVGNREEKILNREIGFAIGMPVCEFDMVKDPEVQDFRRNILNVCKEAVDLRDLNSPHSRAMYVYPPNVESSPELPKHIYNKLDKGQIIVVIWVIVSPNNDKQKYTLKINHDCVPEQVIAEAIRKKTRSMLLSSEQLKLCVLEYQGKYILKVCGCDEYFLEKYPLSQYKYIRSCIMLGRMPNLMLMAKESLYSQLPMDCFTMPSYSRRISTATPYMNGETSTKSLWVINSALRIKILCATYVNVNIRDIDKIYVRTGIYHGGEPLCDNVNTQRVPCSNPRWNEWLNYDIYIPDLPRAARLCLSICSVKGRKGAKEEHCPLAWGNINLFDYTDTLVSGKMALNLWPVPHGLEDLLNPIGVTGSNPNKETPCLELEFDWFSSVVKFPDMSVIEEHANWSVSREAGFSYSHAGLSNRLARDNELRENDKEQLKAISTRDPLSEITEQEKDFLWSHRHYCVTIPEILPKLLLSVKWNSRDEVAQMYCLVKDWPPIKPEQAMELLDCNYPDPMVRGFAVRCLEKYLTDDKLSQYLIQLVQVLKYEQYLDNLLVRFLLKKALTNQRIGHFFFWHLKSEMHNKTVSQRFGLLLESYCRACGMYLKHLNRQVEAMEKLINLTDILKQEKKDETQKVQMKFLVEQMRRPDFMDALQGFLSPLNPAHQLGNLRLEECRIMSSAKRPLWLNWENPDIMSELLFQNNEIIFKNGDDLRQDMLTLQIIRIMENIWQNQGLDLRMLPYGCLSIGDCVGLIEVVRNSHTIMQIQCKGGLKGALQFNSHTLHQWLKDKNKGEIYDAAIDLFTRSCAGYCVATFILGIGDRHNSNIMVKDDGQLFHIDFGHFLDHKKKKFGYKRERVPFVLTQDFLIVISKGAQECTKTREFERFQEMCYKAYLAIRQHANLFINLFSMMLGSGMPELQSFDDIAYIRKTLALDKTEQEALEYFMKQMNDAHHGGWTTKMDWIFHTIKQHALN
Sequence of PI3Kα (P27986 2-724 partner): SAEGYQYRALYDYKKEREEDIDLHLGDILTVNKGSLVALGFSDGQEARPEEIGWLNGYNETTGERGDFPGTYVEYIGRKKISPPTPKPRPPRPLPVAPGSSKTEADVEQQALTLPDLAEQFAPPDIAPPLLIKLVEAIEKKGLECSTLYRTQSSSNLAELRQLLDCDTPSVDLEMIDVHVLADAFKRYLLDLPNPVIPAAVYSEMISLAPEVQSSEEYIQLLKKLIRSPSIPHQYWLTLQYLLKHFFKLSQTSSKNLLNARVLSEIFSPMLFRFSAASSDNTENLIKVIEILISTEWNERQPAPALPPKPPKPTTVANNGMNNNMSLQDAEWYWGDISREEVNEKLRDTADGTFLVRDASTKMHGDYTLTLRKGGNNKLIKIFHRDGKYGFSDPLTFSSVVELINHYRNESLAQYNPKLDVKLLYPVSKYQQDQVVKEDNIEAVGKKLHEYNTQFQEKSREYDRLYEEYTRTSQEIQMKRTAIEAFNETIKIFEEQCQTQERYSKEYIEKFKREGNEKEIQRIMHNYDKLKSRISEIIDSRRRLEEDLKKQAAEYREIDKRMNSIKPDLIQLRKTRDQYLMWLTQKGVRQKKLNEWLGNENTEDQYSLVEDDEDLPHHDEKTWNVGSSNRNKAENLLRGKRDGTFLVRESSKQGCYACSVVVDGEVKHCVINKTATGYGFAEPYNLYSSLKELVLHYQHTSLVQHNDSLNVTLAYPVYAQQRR

Sequence of MEK1 (Q02750 whole entry): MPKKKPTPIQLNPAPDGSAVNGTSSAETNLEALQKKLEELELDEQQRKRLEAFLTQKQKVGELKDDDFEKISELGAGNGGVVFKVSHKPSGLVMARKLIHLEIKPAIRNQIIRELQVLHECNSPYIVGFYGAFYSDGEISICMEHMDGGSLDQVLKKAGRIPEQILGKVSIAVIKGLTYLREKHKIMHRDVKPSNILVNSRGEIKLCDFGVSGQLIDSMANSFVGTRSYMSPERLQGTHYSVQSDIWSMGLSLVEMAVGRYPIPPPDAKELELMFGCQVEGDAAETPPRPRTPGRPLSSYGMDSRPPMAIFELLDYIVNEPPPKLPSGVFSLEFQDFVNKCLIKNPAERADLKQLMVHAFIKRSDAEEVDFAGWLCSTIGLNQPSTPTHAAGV

- IC50 [1]: 398 nM
- IC50 [2]: 191 nM
Structure (SMILES): O=C(NOCCOCCOCCOCCN1CCN(c2nc(N3CCOCC3)nc(-n3c(C(F)F)nc4ccccc43)n2)CC1)c1ccc(F)c(F)c1Nc1ccc(I)cc1F [ST-162]
